#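 Method: 48-hour compound exposure of cells in 96-well plates, five concentrations, linear interpolation of endpoints. The concentration for 50% growth inhibition is given as GI50. TGI is the concentration that stops growth completely.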
# How the values were obtained:
# Assay in all cases: NCI anticancer screen, dose series, 48 h
# UACC-257 melanoma = tested on: UACC-257 melanoma
# HCT-116 colon = tested on: HCT-116 colon
# CAKI-1 renal = tested on: CAKI-1 renal
# SK-MEL-28 melanoma = tested on: SK-MEL-28 melanoma
# HT29 colon = tested on: HT29 colon
# SF-295 CNS = tested on: SF-295 CNS
# MALME-3M melanoma = tested on: MALME-3M melanoma
# ACHN renal = tested on: ACHN renal
# A549 NSCLC = tested on: A549 NSCLC
# RPMI-8226 leukemia = tested on: RPMI-8226 leukemia
# SK-OV-3 ovarian = tested on: SK-OV-3 ovarian
# DU-145 prostate = tested on: DU-145 prostate
# SK-MEL-5 melanoma = tested on: SK-MEL-5 melanoma
# CCRF-CEM leukemia = tested on: CCRF-CEM leukemia
# A498 renal = tested on: A498 renal
# MOLT-4 leukemia = tested on: MOLT-4 leukemia
# HCT-15 colon = tested on: HCT-15 colon
# KM12 colon = tested on: KM12 colon
# OVCAR-8 ovarian = tested on: OVCAR-8 ovarian
# NCI-H460 lung = tested on: NCI-H460 lung
# PC-3 prostate = tested on: PC-3 prostate
# SW-620 colon = tested on: SW-620 colon
# NCI-H226 lung = tested on: NCI-H226 lung
# 786-0 renal = tested on: 786-0 renal
# HOP-92 NSCLC = tested on: HOP-92 NSCLC
# M14 melanoma = tested on: M14 melanoma
# MDA-MB-231 breast = tested on: MDA-MB-231 breast
# OVCAR-5 ovarian = tested on: OVCAR-5 ovarian
# HL-60(TB) leukemia = tested on: HL-60(TB) leukemia
# HS 578T breast = tested on: HS 578T breast
# TK-10 renal = tested on: TK-10 renal
# RXF 393 renal = tested on: RXF 393 renal
# OVCAR-3 ovarian = tested on: OVCAR-3 ovarian
# HCC-2998 colon = tested on: HCC-2998 colon
# LOX IMVI melanoma = tested on: LOX IMVI melanoma
# BT-549 breast = tested on: BT-549 breast
# NCI-H23 lung = tested on: NCI-H23 lung
# UO-31 renal = tested on: UO-31 renal
# SF-539 CNS = tested on: SF-539 CNS
# MCF7 breast = tested on: MCF7 breast
# SNB-19 CNS = tested on: SNB-19 CNS
# SNB-75 CNS = tested on: SNB-75 CNS
# SF-268 CNS = tested on: SF-268 CNS
# OVCAR-4 ovarian = tested on: OVCAR-4 ovarian
# HOP-62 NSCLC = tested on: HOP-62 NSCLC
# COLO 205 colon = tested on: COLO 205 colon
# T-47D breast = tested on: T-47D breast
# K-562 leukemia = tested on: K-562 leukemia
# UACC-62 melanoma = tested on: UACC-62 melanoma
# SK-MEL-2 melanoma = tested on: SK-MEL-2 melanoma
# SN12C renal = tested on: SN12C renal
# SR leukemia = tested on: SR leukemia
# MDA-MB-435 = tested on: MDA-MB-435
# NCI/ADR-RES ovarian = tested on: NCI/ADR-RES ovarian
# U251 CNS = tested on: U251 CNS
# EKVX NSCLC = tested on: EKVX NSCLC
# IGROV1 ovarian = tested on: IGROV1 ovarian
# NCI-H522 lung = tested on: NCI-H522 lung
smiles,measurement,setting,value
CC(C)(C)Nc1nc2c(OCCc3ccccc3)cccn2c1-c1cccc(F)c1,GI50,UACC-257 melanoma,7.56 µM
same,TGI,UACC-257 melanoma,> 100 µM
same,GI50,HCT-116 colon,4.12 µM
same,TGI,HCT-116 colon,36 µM
same,GI50,CAKI-1 renal,5.22 µM
same,TGI,CAKI-1 renal,> 100 µM
same,GI50,SK-MEL-28 melanoma,3.93 µM
same,TGI,SK-MEL-28 melanoma,74.6 µM
same,GI50,HT29 colon,5.02 µM
same,TGI,HT29 colon,24 µM
same,GI50,SF-295 CNS,4.41 µM
same,TGI,SF-295 CNS,22 µM
same,GI50,MALME-3M melanoma,3.6 µM
same,TGI,MALME-3M melanoma,22.8 µM
same,GI50,ACHN renal,4.63 µM
same,TGI,ACHN renal,> 100 µM
same,GI50,A549 NSCLC,4.4 µM
same,TGI,A549 NSCLC,> 100 µM
same,GI50,RPMI-8226 leukemia,3.7 µM
same,TGI,RPMI-8226 leukemia,62.1 µM
same,GI50,SK-OV-3 ovarian,19.9 µM
same,TGI,SK-OV-3 ovarian,> 100 µM
same,GI50,DU-145 prostate,9.13 µM
same,TGI,DU-145 prostate,> 100 µM
same,GI50,SK-MEL-5 melanoma,5.26 µM
same,TGI,SK-MEL-5 melanoma,17.7 µM
same,GI50,CCRF-CEM leukemia,6.53 µM
same,TGI,CCRF-CEM leukemia,> 100 µM
same,GI50,A498 renal,15.8 µM
same,TGI,A498 renal,65.1 µM
same,GI50,MOLT-4 leukemia,3.22 µM
same,TGI,MOLT-4 leukemia,> 100 µM
same,GI50,HCT-15 colon,3.51 µM
same,TGI,HCT-15 colon,14.2 µM
same,GI50,KM12 colon,4.13 µM
same,TGI,KM12 colon,> 100 µM
same,GI50,OVCAR-8 ovarian,9.39 µM
same,TGI,OVCAR-8 ovarian,> 100 µM
same,GI50,NCI-H460 lung,5.5 µM
same,TGI,NCI-H460 lung,24.8 µM
same,GI50,PC-3 prostate,4.91 µM
same,TGI,PC-3 prostate,> 100 µM
same,GI50,SW-620 colon,11.3 µM
same,TGI,SW-620 colon,87.1 µM
same,GI50,NCI-H226 lung,6.29 µM
same,TGI,NCI-H226 lung,63 µM
same,GI50,786-0 renal,13.5 µM
same,TGI,786-0 renal,52.8 µM
same,GI50,HOP-92 NSCLC,3.3 µM
same,TGI,HOP-92 NSCLC,> 100 µM
same,GI50,M14 melanoma,6.79 µM
same,TGI,M14 melanoma,32.1 µM
same,GI50,MDA-MB-231 breast,10.2 µM
same,TGI,MDA-MB-231 breast,26.2 µM
same,GI50,OVCAR-5 ovarian,8.58 µM
same,TGI,OVCAR-5 ovarian,> 100 µM
same,GI50,HL-60(TB) leukemia,3.78 µM
same,TGI,HL-60(TB) leukemia,18.8 µM
same,GI50,HS 578T breast,10.1 µM
same,TGI,HS 578T breast,64.2 µM
same,GI50,TK-10 renal,14.2 µM
same,TGI,TK-10 renal,> 100 µM
same,GI50,RXF 393 renal,8.78 µM
same,TGI,RXF 393 renal,29.2 µM
same,GI50,OVCAR-3 ovarian,3.91 µM
same,TGI,OVCAR-3 ovarian,39 µM
same,GI50,HCC-2998 colon,4.81 µM
same,TGI,HCC-2998 colon,69.6 µM
same,GI50,LOX IMVI melanoma,5.02 µM
same,TGI,LOX IMVI melanoma,17 µM
same,GI50,BT-549 breast,10.3 µM
same,TGI,BT-549 breast,36.3 µM
same,GI50,NCI-H23 lung,4.13 µM
same,TGI,NCI-H23 lung,34.8 µM
same,GI50,UO-31 renal,2.75 µM
same,TGI,UO-31 renal,19.7 µM
same,GI50,SF-539 CNS,10.1 µM
same,TGI,SF-539 CNS,23.1 µM
same,GI50,MCF7 breast,4.34 µM
same,TGI,MCF7 breast,32.4 µM
same,GI50,SNB-19 CNS,5.81 µM
same,TGI,SNB-19 CNS,> 100 µM
same,GI50,SNB-75 CNS,16.1 µM
same,TGI,SNB-75 CNS,> 100 µM
same,GI50,SF-268 CNS,7.84 µM
same,TGI,SF-268 CNS,> 100 µM
same,GI50,OVCAR-4 ovarian,4.52 µM
same,TGI,OVCAR-4 ovarian,> 100 µM
same,GI50,HOP-62 NSCLC,11.8 µM
same,TGI,HOP-62 NSCLC,42 µM
same,GI50,COLO 205 colon,8.88 µM
same,TGI,COLO 205 colon,26.8 µM
same,GI50,T-47D breast,3.55 µM
same,TGI,T-47D breast,> 100 µM
same,GI50,K-562 leukemia,3.49 µM
same,TGI,K-562 leukemia,> 100 µM
same,GI50,UACC-62 melanoma,2.92 µM
same,TGI,UACC-62 melanoma,12.2 µM
same,GI50,SK-MEL-2 melanoma,3.11 µM
same,TGI,SK-MEL-2 melanoma,12.4 µM
same,GI50,SN12C renal,3.99 µM
same,TGI,SN12C renal,> 100 µM
same,GI50,SR leukemia,4.48 µM
same,TGI,SR leukemia,> 100 µM
same,GI50,MDA-MB-435,5.07 µM
same,TGI,MDA-MB-435,27.4 µM
same,GI50,NCI/ADR-RES ovarian,4.25 µM
same,TGI,NCI/ADR-RES ovarian,> 100 µM
same,GI50,U251 CNS,6.19 µM
same,TGI,U251 CNS,25.2 µM
same,GI50,EKVX NSCLC,3.44 µM
same,TGI,EKVX NSCLC,> 100 µM
same,GI50,IGROV1 ovarian,8.99 µM
same,TGI,IGROV1 ovarian,> 100 µM
same,GI50,NCI-H522 lung,4.17 µM
same,TGI,NCI-H522 lung,42.3 µM
